Assay results reported in patent US20240158446A1, “CYCLIC COMPOUND HAVING SELECTIVE INHIBITORY ACTION ON KRAS OVER HRAS AND NRAS” (CHUGAI SEIYAKU KABUSHIKI KAISHA, priority 2021, published 2024).
Like-named read-outs stand apart in the source and are kept apart here. *1 amine or outer side, *2 acyl side, *3 side chain or, on linkers, in order; H or OH if unused. Where a SMILES comes first, the peptide text is derived from it. Bridges are numbered along the chain shown (N, C = ends). [ ]: non-standard residue; d: D form. The star is where a group is joined. hPhe(3-Cl-4-CF3) = N[C@@H](CCc1ccc(C(F)(F)F)c(Cl)c1)C(=O)O; NPrPhe(4-CF3) = CCCN[C@@H](Cc1ccc(C(F)(F)F)cc1)C(=O)O; X43 = CCCN([C@@H](Cc1ccccc1)C(=O)[*:2])[*:1]; NMeGly(cPent) = CN[C@H](C(=O)O)C1CCCC1; Hyp = O=C(O)[C@@H]1C[C@@H](O)CN1; NMeD = CN[C@@H](CC(=O)O)C(=O)O; NMeL = CN[C@@H](CC(C)C)C(=O)O; Morpholide = C1CN(*)CCO1; NMeA = CN[C@@H](C)C(=O)O; Ac5c = NC1(C(=O)O)CCCC1; Aze = O=C(O)[C@@H]1CCN1; Ac4c = NC1(C(=O)O)CCC1; Sar = CNCC(=O)O

Legend:
[1] = target: GDP-bound KRAS wild-type protein (Homo sapiens, UniProt P01116); assay: Binding to KRAS by surface plasmon resonance (SPR), Single Cycle Kinetics; conditions: GDP-bound KRAS wild-type protein, read-out: KRAS KD
[2] = target: GDP-bound NRAS wild-type protein (Homo sapiens, UniProt P01111); assay: Binding to NRAS by surface plasmon resonance (SPR), Single Cycle Kinetics; conditions: for NRAS/KRAS (ratio of KD value for NRAS to KD value for KRAS) / NRAS/KRAS (ratio of KD value with respect to NRAS to KD value with respect to KRAS): SPR, GDP-bound NRAS wild-type protein vs GDP-bound KRAS wild-type protein
[3] = target: GDP-bound HRAS wild-type protein (Homo sapiens, UniProt P01112); assay: Binding to HRAS by surface plasmon resonance (SPR), Single Cycle Kinetics; conditions: for HRAS/KRAS (ratio of KD value for HRAS to KD value for KRAS) / HRAS/KRAS (ratio of KD value with respect to HRAS to KD value with respect to KRAS): SPR, GDP-bound HRAS wild-type protein vs GDP-bound KRAS wild-type protein
[4] = SPR, Single Cycle Kinetics, 1:1 binding model
[5] = SPR Single Cycle Kinetics, 1:1 binding model

Chain of GDP-bound HRAS wild-type protein (P01112 whole entry): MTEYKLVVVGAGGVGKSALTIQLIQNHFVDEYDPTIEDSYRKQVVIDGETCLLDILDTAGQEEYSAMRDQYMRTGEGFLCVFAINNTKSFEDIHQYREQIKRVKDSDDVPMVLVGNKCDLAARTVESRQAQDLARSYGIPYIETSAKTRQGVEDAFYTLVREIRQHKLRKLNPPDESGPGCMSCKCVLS
Chain of GDP-bound NRAS wild-type protein (P01111 whole entry): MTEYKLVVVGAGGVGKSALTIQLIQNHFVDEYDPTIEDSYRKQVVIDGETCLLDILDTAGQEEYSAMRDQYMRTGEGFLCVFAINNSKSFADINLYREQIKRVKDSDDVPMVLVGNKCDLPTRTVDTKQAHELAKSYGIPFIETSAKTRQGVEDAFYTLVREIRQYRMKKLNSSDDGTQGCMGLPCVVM
Chain of GDP-bound KRAS wild-type protein (P01116 whole entry): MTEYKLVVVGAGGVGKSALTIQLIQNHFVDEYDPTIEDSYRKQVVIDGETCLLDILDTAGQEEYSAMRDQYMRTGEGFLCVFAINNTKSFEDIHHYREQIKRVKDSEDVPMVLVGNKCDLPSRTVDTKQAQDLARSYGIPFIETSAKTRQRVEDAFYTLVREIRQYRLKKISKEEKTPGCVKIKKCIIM

| Compound | Kd [1, 5] | NRAS/KRAS (ratio of KD value for NRAS to KD value for KRAS) [2] | HRAS/KRAS (ratio of KD value for HRAS to KD value for KRAS) [3] | Kd ([1]; SPR, Single Cycle Kinetics) | also measured |
| --- | --- | --- | --- | --- | --- |
| CC[C@H](C)[C@@H]1NC(=O)[C@H](CC2CC2)N(C)C(=O)C[C@@H](C(=O)N(C)CC)N(C)C(=O)[C@H](C2CCCC2)N(C)C(=O)C2(CCC2)NC(=O)[C@@H]2CC(F)(F)CN2C(=O)[C@H](CCc2cc(F)c(C(F)(F)F)c(F)c2)NC(=O)CN(C)C(=O)[C@H](Cc2ccc(C(F)(F)F)cc2)N2CC/C=C\C[C@@H](C2=O)N(C)C(=O)CN(C)C1=O [PP1538] |  |  |  |  | Kd [1, 4]: 86 pM; NRAS/KRAS (ratio of KD value for NRAS to KD value for KRAS) ([2]; KD ratio class): A (a compound having 10 or more and less than 20 is denoted as A); HRAS/KRAS (ratio of KD value for HRAS to KD value for KRAS) ([3]; KD ratio class): B (a compound having 3 or more and less than 10 is denoted as B) |
| CCCN1C(=O)CN(C)C(=O)CNC(=O)[C@H]([C@@H](C)CC)NC(=O)[C@H](CC(C)C)N(C)C(=O)C[C@@H](C(=O)N2CCOCC2)NC(=O)[C@H](C2CCCC2)N(C)C(=O)C2(CCC2)NC(=O)[C@@H]2C[C@@H](OCC)CN2C(=O)[C@H](CCc2ccc(C(F)(F)F)c(Cl)c2)NC(=O)CN(C)C(=O)[C@@H]1Cc1ccc(C(F)(F)F)cc1 [PP0330] ([NMeL]IG[Sar][NPrPhe(4-CF3)][Sar][hPhe(3-Cl-4-CF3)][Hyp](Et)[Ac4c][NMeGly(cPent)]D-Morpholide; lactam N-11) | 950 pM | B (a compound having 3 or more and less than 10 is denoted as B) | C (A compound having a KD ratio of 0.1 or more and less than 3 is denoted as C) |  |  |
| CC[C@H](C)[C@@H]1NC(=O)[C@H](CC(C)C)N(C)C(=O)C[C@@H](C(=O)N2CCOCC2)N(C)C(=O)[C@H](C2CCCC2)N(C)C(=O)C2(CCC2)NC(=O)[C@@H]2[C@H](O)CCN2C(=O)[C@H](CCc2cc(F)c(C(F)(F)F)c(F)c2)NC(=O)CN(C)C(=O)[C@H](Cc2ccc(C(F)(F)F)cc2)N2CCCC[C@@H](C2=O)N(C)C(=O)CN(C)C1=O [PP0870] |  | B (a compound having 3 or more and less than 10 is denoted as B) | B (a compound having 3 or more and less than 10 is denoted as B) | 57 pM |  |
| CCCN1C(=O)CN(C)C(=O)CNC(=O)[C@H]([C@@H](C)CC)NC(=O)[C@H](CC(C)C)N(C)C(=O)C[C@@H](C(=O)N(C)C)N(C)C(=O)[C@H](C2CCCC2)N(C)C(=O)C2(CCC2)NC(=O)[C@@H]2C[C@@H](OCC)CN2C(=O)[C@H](CCc2ccc(C(F)(F)F)c(Cl)c2)NC(=O)CN(C)C(=O)[C@@H]1Cc1ccc(C(F)(F)F)cc1 [PP0422] ([NMeL]IG[Sar][NPrPhe(4-CF3)][Sar][hPhe(3-Cl-4-CF3)][Hyp](Et)[Ac4c][NMeGly(cPent)][NMeD]-NMe2; lactam N-11) | 17 pM |  |  |  | NRAS/KRAS (ratio of KD value with respect to NRAS to KD value with respect to KRAS) [2]: B (a compound having 3 or more and less than 10 is denoted as B); HRAS/KRAS (ratio of KD value with respect to HRAS to KD value with respect to KRAS) [3]: B (a compound having 3 or more and less than 10 is denoted as B) |
| CCO[C@@H]1C[C@H]2C(=O)NC3(CCC3)C(=O)N(C)[C@@H](C(CC)CC)C(=O)N(C)[C@H](C(=O)N3CCCC3)CC(=O)N(C)[C@H]3CCC/C=C/c4ccc(cc4)C[C@@H](C(=O)N(C)CC(=O)N[C@@H](CCc4cc(F)c(C(F)(F)F)c(F)c4)C(=O)N2C1)N1CC/C=C\C[C@@H](C1=O)N(C)C(=O)CN(C1CC1)C(=O)[C@H]([C@@H](C)CC)NC3=O [PP2957] | 230 pM |  |  |  | NRAS/KRAS (ratio of KD value with respect to GDP-bound NRAS wild-type protein to KD value with respect to KRAS) ([2]; SPR KD ratio NRAS/KRAS, class symbols): AA (a compound having 20 or more is denoted as AA); HRAS/KRAS (ratio of KD value with respect to GDP-bound HRAS wild-type protein to KD value with respect to KRAS) ([3]; SPR KD ratio HRAS/KRAS, class symbols): A (a compound having 10 or more and less than 20 is denoted as A) |
| CCO[C@@H]1C[C@H]2C(=O)NC3(CCC3)C(=O)N(C)[C@@H](C3CCCC3)C(=O)N(C)[C@H](C(=O)N(CC)CC)CC(=O)N(C)[C@@H](CC)C(=O)N[C@@H]([C@@H](C)CC)C(=O)N(C)CC(=O)N(C)[C@H]3C/C=C\CCN(C3=O)[C@@H](Cc3ccc(C(F)(F)F)cc3)C(=O)N(C)CC(=O)N[C@@H](CCc3cc(F)c(C(F)(F)F)c(F)c3)C(=O)N2C1 [PP1305, (2S,8S,12R,14S,20S,23S,27S,30S,36S,38Z)-20-cyclopentyl-8-[2-[3,5-difluoro-4-(trifluoromethyl)phenyl]ethyl]-12-ethoxy-N,N,27-triethyl-4,19,22,26,32,35-hexamethyl-30-[(1S)-1-methylpropyl]-3,6,9,15,18,21,25,28,31,34,42-undecaoxo-2-[[4-(trifluoromethyl)phenyl]methyl]spiro[1,4,7,10,16,19,22,26,29,32,35-undecazatricyclo[34.5.1.0^10,14]dotetracont-38-ene-17,1′-cyclobutane]-23-carboxamide] |  |  |  |  | Kd [1, 4]: 120 pM; NRAS/KRAS (ratio of KD value for NRAS to KD value for KRAS) ([2]; KD ratio class): AA (a compound having 20 or more is denoted as AA); HRAS/KRAS (ratio of KD value for HRAS to KD value for KRAS) ([3]; KD ratio class): A (a compound having 10 or more and less than 20 is denoted as A) |
| CCO[C@@H]1C[C@H]2C(=O)NC3(CCC3)C(=O)N(C)[C@@H](C3CCCC3)C(=O)N(C)[C@H](C(=O)N3CCOCC3)CC(=O)N(C)[C@@H](CC(C)C)C(=O)N[C@@H]([C@@H](C)CC)C(=O)N(C)CC(=O)N(C)[C@H]3C[C@@H](C)CCN(C3=O)[C@@H](Cc3ccc(C(F)(F)F)cc3)C(=O)N(C)CC(=O)N[C@@H](CCc3cc(F)c(C(F)(F)F)c(F)c3)C(=O)N2C1 [PP1025] |  | C (A compound having a KD ratio of 0.1 or more and less than 3 is denoted as C) | B (a compound having 3 or more and less than 10 is denoted as B) | 56 pM |  |
| CC[C@H](C)[C@@H]1NC(=O)[C@H](CC(C)C)N(C)C(=O)C[C@@H](C(=O)N2CCCC2)N(C)C(=O)[C@H](C2CCCC2)N(C)C(=O)C2(CCCC2)NC(=O)[C@@H]2CCCN2C(=O)[C@H](CCc2cc(F)c(C(F)(F)F)c(F)c2)NC(=O)CN(C)C(=O)[C@H](Cc2ccc(C(F)(F)F)cc2)N2CCCC[C@@H](C2=O)N(C)C(=O)CN(C)C1=O [PP0571] | 50 pM |  |  |  | NRAS/KRAS (ratio of KD value with respect to NRAS to KD value with respect to KRAS) [2]: B (a compound having 3 or more and less than 10 is denoted as B); HRAS/KRAS (ratio of KD value with respect to HRAS to KD value with respect to KRAS) [3]: B (a compound having 3 or more and less than 10 is denoted as B) |
| CCCO[C@@H]1C[C@H]2C(=O)NC3(CCC3)C(=O)N(C)[C@@H](C3CCCC3)C(=O)N(C)[C@H](C(=O)N3CCOCC3)CC(=O)N(C)[C@@H](COC)C(=O)N[C@@H]([C@@H](C)CC)C(=O)N(C)CC(=O)N(C)[C@H]3CCCCCN(C3=O)[C@@H](Cc3ccc(C(F)(F)F)cc3)C(=O)N(C)CC(=O)N[C@@H](CCc3cc(F)c(C(F)(F)F)c(F)c3)C(=O)N2C1 [PP0838] |  | B (a compound having 3 or more and less than 10 is denoted as B) | B (a compound having 3 or more and less than 10 is denoted as B) | 530 pM |  |
| CCCN1C(=O)CN(C)C(=O)CN(C)C(=O)[C@H]([C@@H](C)CC)NC(=O)[C@H](CC(C)C)N(C)C(=O)C[C@@H](C(=O)N2CCOCC2)N(C)C(=O)[C@H](C2CCCC2)N(C)C(=O)C2(CCCC2)NC(=O)[C@@H]2CCCN2C(=O)[C@H](CCc2ccc(C(F)(F)F)c(Cl)c2)NC(=O)CN(C)C(=O)[C@@H]1Cc1ccccc1 [PP0211] ([NMeL]I[Sar][Sar][X43][Sar][hPhe(3-Cl-4-CF3)]P[Ac5c][NMeGly(cPent)][NMeD]-Morpholide; lactam N-11) | 270 pM | B (a compound having 3 or more and less than 10 is denoted as B) | C (A compound having a KD ratio of 0.1 or more and less than 3 is denoted as C) |  |  |
| CCC[C@H]1C(=O)N[C@@H]([C@@H](C)CC)C(=O)N2CCC[C@H]2C(=O)N(C)[C@H]2C/C=C\CCN(C2=O)[C@@H](Cc2ccc(C)cc2)C(=O)N(C)CC(=O)N[C@@H](CCc2ccc(C(F)(F)F)c(OC)c2)C(=O)N2C[C@H](OCC)C[C@H]2C(=O)N(C)C2(CCC2)C(=O)N(C)[C@@H](C(CC)CC)C(=O)N(C)[C@H](C(=O)N(C)C)CC(=O)N1C [PP2329] |  | A (a compound having 10 or more and less than 20 is denoted as A) | A (a compound having 10 or more and less than 20 is denoted as A) | 420 pM |  |
| CCO[C@@H]1C[C@H]2C(=O)NC3(CCC3)C(=O)N(C)[C@@H](C3CCCC3)C(=O)N(C)[C@H](C(=O)N(C)C)CC(=O)N(C)[C@@H](CC(C)C)C(=O)N[C@@H]([C@@H](C)CC)C(=O)N3CC[C@H]3C(=O)N(C)[C@H]3C[C@@H](C)CCN(C3=O)[C@@H](Cc3ccc(C(F)(F)F)cc3)C(=O)N(C)CC(=O)N[C@@H](CCc3cc(F)c(C(F)(F)F)c(F)c3)C(=O)N2C1 [PP1019] |  | C (A compound having a KD ratio of 0.1 or more and less than 3 is denoted as C) | B (a compound having 3 or more and less than 10 is denoted as B) | 55 pM |  |
| CCCN1C(=O)[C@@H]2CCN2C(=O)[C@H](C)N(C)C(=O)[C@H]([C@@H](C)CC)NC(=O)[C@H](CC(C)C)N(C)C(=O)C[C@@H](C(=O)N2CCOCC2)N(C)C(=O)[C@H](C2CCCC2)N(C)C(=O)C2(CCCC2)NC(=O)[C@H](C)NC(=O)[C@H](CCc2ccc(C(F)(F)F)c(Cl)c2)NC(=O)CN(C)C(=O)[C@@H]1Cc1ccc(C(F)(F)F)cc1 [PP0153] ([NMeL]I[NMeA][Aze][NPrPhe(4-CF3)][Sar][hPhe(3-Cl-4-CF3)]A[Ac5c][NMeGly(cPent)][NMeD]-Morpholide; lactam N-11) | 330 pM | C (A compound having a KD ratio of 0.1 or more and less than 3 is denoted as C) | C (A compound having a KD ratio of 0.1 or more and less than 3 is denoted as C) |  |  |
